Assay results reported in patent US9521846B2, “Template-fixed peptidomimetics with antimicrobial activity” (priority 2006, dated 2016).
In brackets after ≈: the same amount, converted by molar mass. Non-standard residues stand in square brackets, D forms with d. Residues, ends and D or L forms follow the SMILES beside them. Dab = NCC[C@H](N)C(=O)O

Assays:
in vivo = experiment: in vivo; set-up: species or system CD-1 mice
Method: Pharmacokinetic Study after Single Intravenous, Subcutaneous and Intraperitoneal Administration in Mice Pharmacokinetic study after single intravenous (i.v.) and subcutaneous (s.c.) administration was performed for the compound of Example 1 (“Ex. 1”). CD-1 mice (20-25 g) were used in the study. Physiological saline was used a vehicle. The volume was 2 ml/kg i.v., and 5 ml/kg s.c. and the peptide Ex. 1 was injected to give a final intravenous dose of 1 mg/kg, and a subcutaneous dose of 5 mg/kg. […] Plasma was removed from pelleted cells upon centrifugation and frozen at −80° C. prior to HPLC-MS analysis. “Blank” mouse plasma from untreated animals was used. Aliquots of plasma of 0.2 ml each were spiked with 50 ng of propranolol (Internal Standard, IS), (sample preparation by solid phase extraction on OASIS® BIB cartridges (Waters)) and with known amounts of Ex. 1 in order to obtain 9 plasma calibration samples in the range 10-5000 nM. […] The plate containing eluates was introduced into the concentrator system and taken to dryness. […] Samples coming from animal treatments were pooled in order to obtain an appropriate volume for the extraction. If the total volume obtained was less than 0.2 ml the appropriate amount of “blank” mouse plasma was added in order to keep the matrix identical to the calibration curve. Samples were than spiked with IS and processed as described for the calibration curve. PK analysis was performed on pooled data (generally n=2 or 3) using the software Win Nonlin (Pharsight). The area under the curve AUC was calculated by the linear trapezoidal rule. Elimination half-life was calculated by the linear regression on at least three data points during the elimination phase. The time intervals selected for the half-life determinations were evaluated by the correlation coefficient (r^2), which should be at least above 0.85 and most optimally above 0.96. In case of i.v. administration the initial concentration at tzero was determined by extrapolation of the curve through the first two time points. Finally bioavailability after […]. administration was calculated from the normalised AUCinf_D_obs ration after s.c. versus i.v. administration.

HELA cells (Acc57) = experiment: Cytotoxicity assay, MTT reduction (LC 50, GI 50); assay type: cell-based
Procedure, shortened: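 Read-out was MTT reduction (A595) after 48 h peptide exposure (12.5–50 μM, triplicates) of HeLa cells plated at 7.0×10^3/well and precultured 24 h. Growth % was normalised to a time-zero reading. Linear trend interpolation gave the concentration at −50% growth (LC50) and at 50% growth (GI50).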

P. aeruginosa ATCC 27853 = assay type: cell-based, Pseudomonas aeruginosa; conditions: ATCC 27853
Procedure, shortened: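 Bacteria were diluted in MH broth containing 0.02% BSA to roughly 10^6 CFU/ml, checked against a 0.5 McFarland standard. This inoculum was then added in equal volume to serially two-fold diluted peptide, following the NCCLS microdilution protocol with slight modifications.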

`CC[C@H](C)[C@@H]1NC(=O)[C@H](Cc2c[nH]c3ccccc23)NC(=O)[C@H]([C@@H](C)O)NC(=O)[C@@H]2CCCN2C(=O)[C@H]2CCCN2C(=O)[C@H](CCN)NC(=O)[C@H](C)NC(=O)[C@H](CCN)NC(=O)[C@H](CCN)NC(=O)[C@H](Cc2c[nH]c3ccccc23)NC(=O)[C@H](CCN)NC(=O)[C@H](CCN)NC(=O)[C@H](CCCCN)NC(=O)[C@H](CCN)NC1=O` [Example 1] (cyclo(TWI[Dab]K[Dab][Dab]W[Dab][Dab]A[Dab][dP]P)) gave a Vd (in vivo; CD-1, mouse, iv, 1 mg/kg) of 1.14 L/kg, a clearance (in vivo; CD-1, mouse, iv, 1 mg/kg) of 25.7 mL/min/kg and a level at 0.25 h (in vivo; CD-1, mouse, iv, 1 mg/kg) of 575 ng/mL. The level at 1 h (in vivo; CD-1, mouse, iv, 1 mg/kg) was 177 ng/mL, the level at 3 h (in vivo; CD-1, mouse, iv, 1 mg/kg) was 10.6 ng/mL and the level at 8 h (in vivo; CD-1, mouse, sc, 5 mg/kg) was 7.3 ng/mL. For the same molecule, the bioavailability (in vivo; mouse, 5 mg/kg) was 118.2%, the bioavailability (in vivo; mouse, 5 mg/kg, Bioavailability) was 118% and the AUC(0-inf) (in vivo; mouse, iv, 1 mg/kg) was 680 ng·h/mL. The C0 (in vivo; mouse, iv, 1 mg/kg) was 2170 ng/mL, the Cmax_D (in vivo; mouse, iv, 1 mg/kg) was 1268.0 kg·ng/mL/mg and the Tmax (in vivo; mouse, iv, 1 mg/kg) was 4.8 min. The half-life (in vivo; mouse, iv, 1 mg/kg) was 31.8 min, the bioavailability (in vivo; mouse, iv, 1 mg/kg, Bioavailability) was 100% and the Cmax (in vivo; mouse, iv, 1 mg/kg, Cmax) was 1270 ng/mL. The AUC(0-inf) (in vivo; mouse, sc, 5 mg/kg) was 4020 ng·h/mL, the Cl_obs (in vivo; mouse, sc, 5 mg/kg) was 20.83 mL/min/kg and the Cmax (in vivo; mouse, sc, 5 mg/kg) was 2333.3 ng/mL. For the same molecule, the Cmax_D (in vivo; mouse, sc, 5 mg/kg) was 466.7 kg·ng/mL/mg, the Tmax (in vivo; mouse, sc, 5 mg/kg) was 34.8 min and the Vz_obs (in vivo; mouse, sc, 5 mg/kg) was 1.7056 L/kg. It also gave a half-life (in vivo; mouse, sc, 5 mg/kg) of 57 min, a Cmax (in vivo; mouse, sc, 5 mg/kg, Cmax) of 2330 ng/mL and a Cytotoxicity GI50 Hela cells (HELA cells (Acc57)) of 30 µM. The “MIC P. aeruginosa ATCC 27853” value (P. aeruginosa ATCC 27853) was 0.03 µg/mL (≈ 0.019 µM).
